Experimental data from patent US20260176320A1, “MODULATORS OF G-PROTEIN COUPLED RECEPTORS” (priority 2018, published 2026).
Read-outs that look alike come from different tables or passages of the source.

Columns and labels:
Format in all cases: cell-based
[1] = target: T1, GLP-1R (Homo sapiens, UniProt P43220); experiment: PathHunter β-arrestin assay
Summary of the method: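 Cells (5,000/well) plated overnight, then exposed to a 22-point 2-fold agonist dilution series in medium with 0.2% BSA for 90 min at 37 °C, 5% CO2. PathHunter detection reagent added; after 3 h at room temperature in the dark, luminescence read.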

[2] = target: T2, GIP-R (Homo sapiens, UniProt P48546); experiment: HitHunter cAMP assay (GIP-R)
T2 sequence (P48546 22-466): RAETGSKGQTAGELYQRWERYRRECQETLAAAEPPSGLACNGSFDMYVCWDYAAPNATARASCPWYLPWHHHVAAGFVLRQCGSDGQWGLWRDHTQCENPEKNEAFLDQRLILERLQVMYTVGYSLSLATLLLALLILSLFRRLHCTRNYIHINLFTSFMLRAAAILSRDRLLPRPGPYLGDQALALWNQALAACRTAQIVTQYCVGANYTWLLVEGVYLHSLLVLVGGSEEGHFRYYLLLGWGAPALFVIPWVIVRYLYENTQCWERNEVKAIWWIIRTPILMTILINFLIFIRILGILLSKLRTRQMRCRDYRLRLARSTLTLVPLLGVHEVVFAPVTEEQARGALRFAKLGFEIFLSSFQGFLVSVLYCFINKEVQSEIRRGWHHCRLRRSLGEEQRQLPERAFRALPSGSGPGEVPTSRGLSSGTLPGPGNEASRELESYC
Summary of the method: (§1)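 Suspension cells (10,000/well) in HBSS with 10 mM HEPES, 625 μM IBMX, 0.2% BSA exposed to 22-point 2-fold agonist series in duplicate for 30 min at room temperature. cAMP measured by antibody immunocompetition with overnight development, luminescence read-out.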

[3] = target: T1, GLP-1R; experiment: HitHunter cAMP assay (GLP-1R); conditions: cAMP; for Emax: read-out: (Emax) GLP-1R
Summary of the method: as §1

[4] = PathHunter β-arrestin assay, read-out: β-arrestin activity EC50
[5] = Table 3; cAMP; read-out: (Emax) GIP-R
[6] = Table 3; cAMP; read-out: EC50 GIP-R/nM
[7] = Table 3A; cAMP; read-out: (Emax) GIP-R
[8] = Table 3A; cAMP; read-out: EC50 GIP-R/nM
[9] = Table 3, read-out: EC50 GLP-1R/nM
[10] = Table 3A, read-out: EC50 GLP-1R/nM

T1 sequence (P43220 24-463): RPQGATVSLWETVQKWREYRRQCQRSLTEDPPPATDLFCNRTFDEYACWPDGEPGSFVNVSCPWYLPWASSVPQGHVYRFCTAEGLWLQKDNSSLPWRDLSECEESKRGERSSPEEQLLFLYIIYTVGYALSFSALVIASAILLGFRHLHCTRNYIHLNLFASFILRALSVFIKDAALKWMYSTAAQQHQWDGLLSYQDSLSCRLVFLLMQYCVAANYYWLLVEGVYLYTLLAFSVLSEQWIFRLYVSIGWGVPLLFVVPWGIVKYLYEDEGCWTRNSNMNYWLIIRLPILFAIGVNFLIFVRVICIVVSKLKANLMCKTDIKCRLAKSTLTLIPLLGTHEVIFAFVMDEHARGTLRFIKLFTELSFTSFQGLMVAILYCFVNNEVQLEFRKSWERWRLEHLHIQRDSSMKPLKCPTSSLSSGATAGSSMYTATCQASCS

| SMILES | EC50 [1, 4] | Emax [2, 5] | EC50 [2, 6] | Emax [2, 7] | EC50 [2, 8] | Emax ([3]; Table 3) | EC50 [3, 9] | Emax ([3]; Table 3A) | EC50 [3, 10] | EC50 [1] | EC50 ([2]; read-out: EC50 GIP-R/nM; Table 3; cAMP) | EC50 ([2]; read-out: EC50 GIP-R/nM; Table 3A; cAMP) | EC50 ([3]; EC50 GLP-1R/nM, Table 3) | EC50 ([3]; EC50 GLP-1R/nM, Table 3A) |
| --- | --- | --- | --- | --- | --- | --- | --- | --- | --- | --- | --- | --- | --- | --- |
| CC[C@H](C)[C@H](NC(=O)[C@H](CO)NC(=O)[C@H](Cc1ccc(O)cc1)NC(=O)[C@H](CC(=O)O)NC(=O)[C@H](CO)NC(=O)[C@@H](NC(=O)[C@H](Cc1ccccc1)NC(=O)[C@@H](NC(=O)CNC(=O)[C@H](CCC(=O)O)NC(=O)C1(C(=O)NCCN2C(=O)CSC2=O)CCCCC1)[C@@H](C)O)[C@@H](C)O)C(=O)N[C@@H](Cc1ccc(O)cc1)C(=O)N[C@@H](CC(C)C)C(=O)N[C@@H](CC(=O)O)C(=O)N[C@@H](CCCCN)C(=O)N[C@@H](CCC(N)=O)C(=O)N[C@@H](C)C(=O)N[C@@H](C)C(=O)NC(C)(C)C(=O)N[C@@H](CCC(=O)O)C(=O)N[C@@H](Cc1ccccc1)C(=O)N[C@H](C(=O)N[C@@H](CC(N)=O)C(=O)N[C@@H](Cc1c[nH]c2ccccc12)C(=O)N[C@@H](CC(C)C)C(=O)N[C@@H](CC(C)C)C(=O)N[C@@H](C)C(=O)NCC(=O)NCC(=O)N1CCC[C@H]1C(=O)N[C@@H](CO)C(=O)N[C@@H](CO)C(=O)NCC(=O)N[C@@H](C)C(=O)N1CCC[C@H]1C(=O)N1CCC[C@H]1C(=O)N1CCC[C@H]1C(=O)N[C@@H](CO)C(=O)N[C@@H](CCCCN)C(N)=O)C(C)C [Compound 119] | < 10 nM | 41% | 1 to 10 nM | 41% | 10 to 100 nM | 97% | < 0.1 nM | 97% | < 0.1 nM | – | – | – | – | – |
| CC[C@H](C)[C@H](NC(=O)[C@H](CO)NC(=O)[C@H](Cc1ccc(O)cc1)NC(=O)[C@H](CC(=O)O)NC(=O)[C@H](CO)NC(=O)[C@@H](NC(=O)[C@H](Cc1ccccc1)NC(=O)[C@@H](NC(=O)CNC(=O)[C@H](CCC(=O)O)NC(=O)CSCC(=O)NCCCN1C(=O)c2ccccc2C1=O)[C@@H](C)O)[C@@H](C)O)C(=O)N[C@@H](Cc1ccc(O)cc1)C(=O)N[C@@H](CC(C)C)C(=O)N[C@@H](CC(=O)O)C(=O)N[C@@H](CCCCN)C(=O)N[C@@H](CCC(N)=O)C(=O)N[C@@H](C)C(=O)N[C@@H](C)C(=O)NC(C)(C)C(=O)N[C@@H](CCC(=O)O)C(=O)N[C@@H](Cc1ccccc1)C(=O)N[C@H](C(=O)N[C@@H](CC(N)=O)C(=O)N[C@@H](Cc1c[nH]c2ccccc12)C(=O)N[C@@H](CC(C)C)C(=O)N[C@@H](CC(C)C)C(=O)N[C@@H](C)C(=O)NCC(=O)NCC(=O)N1CCC[C@H]1C(=O)N[C@@H](CO)C(=O)N[C@@H](CO)C(=O)NCC(=O)N[C@@H](C)C(=O)N1CCC[C@H]1C(=O)N1CCC[C@H]1C(=O)N1CCC[C@H]1C(=O)N[C@@H](CO)C(=O)N[C@@H](CCCCN)C(N)=O)C(C)C [Compound 180] | > 1000 nM | 84% | 10 to 100 nM | 84% | 10 to 100 nM | 94% | 10 to 100 nM | 94% | 10 to 100 nM | – | – | – | – | – |
| CC[C@H](C)[C@H](NC(=O)[C@H](CO)NC(=O)[C@H](Cc1ccc(O)cc1)NC(=O)[C@H](CC(=O)O)NC(=O)[C@H](CO)NC(=O)[C@@H](NC(=O)[C@H](Cc1ccccc1)NC(=O)[C@@H](NC(=O)CNC(=O)[C@H](CCC(=O)O)NC(=O)CC(=O)NCCCN1C(=O)CSC1=O)[C@@H](C)O)[C@@H](C)O)C(=O)N[C@@H](Cc1ccc(O)cc1)C(=O)N[C@@H](CC(C)C)C(=O)N[C@@H](CC(=O)O)C(=O)N[C@@H](CCCCN)C(=O)N[C@@H](CCC(N)=O)C(=O)N[C@@H](C)C(=O)N[C@@H](C)C(=O)NC(C)(C)C(=O)N[C@@H](CCC(=O)O)C(=O)N[C@@H](Cc1ccccc1)C(=O)N[C@H](C(=O)N[C@@H](CC(N)=O)C(=O)N[C@@H](Cc1c[nH]c2ccccc12)C(=O)N[C@@H](CC(C)C)C(=O)N[C@@H](CC(C)C)C(=O)N[C@@H](C)C(=O)NCC(=O)NCC(=O)N1CCC[C@H]1C(=O)N[C@@H](CO)C(=O)N[C@@H](CO)C(=O)NCC(=O)N[C@@H](C)C(=O)N1CCC[C@H]1C(=O)N1CCC[C@H]1C(=O)N1CCC[C@H]1C(=O)N[C@@H](CO)C(=O)N[C@@H](CCCCN)C(N)=O)C(C)C [Compound 166] | – | 77 to 84% | – | 77 to 84% | – | 109% | – | 109% | – | > 1000 nM | 1 to 100 nM | 1 to 100 nM | < 0.1 nM | < 0.1 nM |
| CCCCCCCCCCCCCCCC(=O)N[C@@H](CCC(=O)NCCCC[C@H](NC(=O)[C@H](CO)NC(=O)[C@@H]1CCCN1C(=O)[C@@H]1CCCN1C(=O)[C@@H]1CCCN1C(=O)[C@H](C)NC(=O)CNC(=O)[C@H](CO)NC(=O)[C@H](CO)NC(=O)[C@@H]1CCCN1C(=O)CNC(=O)CNC(=O)[C@H](C)NC(=O)[C@H](CC(C)C)NC(=O)[C@H](CC(C)C)NC(=O)[C@H](Cc1c[nH]c2ccccc12)NC(=O)[C@H](CC(N)=O)NC(=O)[C@@H](NC(=O)[C@H](Cc1ccccc1)NC(=O)[C@H](CCC(=O)O)NC(=O)C(C)(C)NC(=O)[C@H](C)NC(=O)[C@H](C)NC(=O)[C@H](CCC(N)=O)NC(=O)[C@H](CCCCN)NC(=O)[C@H](CC(=O)O)NC(=O)[C@H](CC(C)C)NC(=O)[C@H](Cc1ccc(O)cc1)NC(=O)[C@@H](NC(=O)[C@H](CO)NC(=O)[C@H](Cc1ccc(O)cc1)NC(=O)[C@H](CC(=O)O)NC(=O)[C@H](CO)NC(=O)[C@@H](NC(=O)[C@H](Cc1ccccc1)NC(=O)[C@@H](NC(=O)CNC(=O)[C@H](CCC(=O)O)NC(=O)CCCNC(=O)CCN1CCCCC1=O)[C@@H](C)O)[C@@H](C)O)[C@@H](C)CC)C(C)C)C(N)=O)C(=O)O [Compound 15] | > 1000 nM | 20% | 1 to 10 nM | 20% | 10 to 100 nM | 93% | 0.1 to 1 nM | 93% | 0.1 to 1 nM | – | – | – | – | – |
| CCCCCCCCCCCCCCCC(=O)N[C@@H](CCC(=O)NCCCC[C@H](NC(=O)[C@H](CO)NC(=O)[C@@H]1CCCN1C(=O)[C@@H]1CCCN1C(=O)[C@@H]1CCCN1C(=O)[C@H](C)NC(=O)CNC(=O)[C@H](CO)NC(=O)[C@H](CO)NC(=O)[C@@H]1CCCN1C(=O)CNC(=O)CNC(=O)[C@H](C)NC(=O)[C@H](CC(C)C)NC(=O)[C@H](CC(C)C)NC(=O)[C@H](Cc1c[nH]c2ccccc12)NC(=O)[C@H](CC(N)=O)NC(=O)[C@@H](NC(=O)[C@H](Cc1ccccc1)NC(=O)[C@H](CCC(=O)O)NC(=O)C(C)(C)NC(=O)[C@H](C)NC(=O)[C@H](C)NC(=O)[C@H](CCC(N)=O)NC(=O)[C@H](CCCCN)NC(=O)[C@H](CC(=O)O)NC(=O)[C@H](CC(C)C)NC(=O)[C@H](Cc1ccc(O)cc1)NC(=O)[C@@H](NC(=O)[C@H](CO)NC(=O)[C@H](Cc1ccc(O)cc1)NC(=O)[C@H](CC(=O)O)NC(=O)[C@H](CO)NC(=O)[C@@H](NC(=O)[C@H](Cc1ccccc1)NC(=O)[C@@H](NC(=O)CNC(=O)[C@H](CCC(=O)O)NC(=O)CCCC(=O)NCCN1C(=O)CSC1=O)[C@@H](C)O)[C@@H](C)O)[C@@H](C)CC)C(C)C)C(N)=O)C(=O)O [Compound 155] | > 1000 nM | 80% | 1 to 10 nM | 80% | 1 to 10 nM | 102% | 0.1 to 1 nM | 102% | 0.1 to 1 nM | – | – | – | – | – |
| CC[C@H](C)[C@H](NC(=O)[C@H](CO)NC(=O)[C@H](Cc1ccc(O)cc1)NC(=O)[C@H](CC(=O)O)NC(=O)[C@H](CO)NC(=O)[C@@H](NC(=O)[C@H](Cc1ccccc1)NC(=O)[C@@H](NC(=O)CNC(=O)[C@H](CCC(=O)O)NC(=O)CCCNC(=O)CCN1C(=O)CSC1=O)[C@@H](C)O)[C@@H](C)O)C(=O)N[C@@H](Cc1ccc(O)cc1)C(=O)N[C@@H](CC(C)C)C(=O)N[C@@H](CC(=O)O)C(=O)N[C@@H](CCCCN)C(=O)N[C@@H](CCC(N)=O)C(=O)N[C@@H](C)C(=O)N[C@@H](C)C(=O)NC(C)(C)C(=O)N[C@@H](CCC(=O)O)C(=O)N[C@@H](Cc1ccccc1)C(=O)N[C@H](C(=O)N[C@@H](CC(N)=O)C(=O)N[C@@H](Cc1c[nH]c2ccccc12)C(=O)N[C@@H](CC(C)C)C(=O)N[C@@H](CC(C)C)C(=O)N[C@@H](C)C(=O)NCC(=O)NCC(=O)N1CCC[C@H]1C(=O)N[C@@H](CO)C(=O)N[C@@H](CO)C(=O)NCC(=O)N[C@@H](C)C(=O)N1CCC[C@H]1C(=O)N1CCC[C@H]1C(=O)N1CCC[C@H]1C(=O)N[C@@H](CO)C(=O)N[C@@H](CCCCN)C(N)=O)C(C)C [Compound 165] | > 1000 nM | 91 to 98% | 1 to 10 nM | 91 to 98% | 1 to 10 nM | 101 to 106% | 0.1 to 1 nM | 101 to 106% | 0.1 to 1 nM | – | – | – | – | – |
